In US8822519B2, “Compound with agitation effect on peroxisome proliferator-activated receptor process for its preparation and use thereof” (Zhejiang Hisun Pharmaceutical Co., Ltd., priority 2008, dated 2014):

Key:
[1] = target: T1, PPARδ (Homo sapiens, UniProt Q03181); test: In vitro screening of nuclear receptor agonist: luciferase reporter gene assay in HepG2 cells; type: cell-based; conditions: RXR/PPARδ luciferase reporter gene, 24 h treatment
T1 construct: expressed in transfected cells; host or cells: HepG2 (human hepatocarcinoma, ATCC)
T1 sequence (Q03181 1-441): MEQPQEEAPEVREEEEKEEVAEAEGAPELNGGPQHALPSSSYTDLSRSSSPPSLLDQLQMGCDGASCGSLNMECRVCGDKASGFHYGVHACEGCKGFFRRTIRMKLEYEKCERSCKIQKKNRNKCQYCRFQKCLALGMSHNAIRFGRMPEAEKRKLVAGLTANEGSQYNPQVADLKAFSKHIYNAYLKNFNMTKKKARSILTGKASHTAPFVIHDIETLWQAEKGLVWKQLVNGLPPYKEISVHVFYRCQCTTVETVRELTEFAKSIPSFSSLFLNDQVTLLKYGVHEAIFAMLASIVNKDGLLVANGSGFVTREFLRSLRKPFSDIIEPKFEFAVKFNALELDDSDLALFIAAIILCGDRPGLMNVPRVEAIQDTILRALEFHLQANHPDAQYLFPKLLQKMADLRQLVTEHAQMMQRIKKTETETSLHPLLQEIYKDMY
T1 sequence (P19793 1-462 partner): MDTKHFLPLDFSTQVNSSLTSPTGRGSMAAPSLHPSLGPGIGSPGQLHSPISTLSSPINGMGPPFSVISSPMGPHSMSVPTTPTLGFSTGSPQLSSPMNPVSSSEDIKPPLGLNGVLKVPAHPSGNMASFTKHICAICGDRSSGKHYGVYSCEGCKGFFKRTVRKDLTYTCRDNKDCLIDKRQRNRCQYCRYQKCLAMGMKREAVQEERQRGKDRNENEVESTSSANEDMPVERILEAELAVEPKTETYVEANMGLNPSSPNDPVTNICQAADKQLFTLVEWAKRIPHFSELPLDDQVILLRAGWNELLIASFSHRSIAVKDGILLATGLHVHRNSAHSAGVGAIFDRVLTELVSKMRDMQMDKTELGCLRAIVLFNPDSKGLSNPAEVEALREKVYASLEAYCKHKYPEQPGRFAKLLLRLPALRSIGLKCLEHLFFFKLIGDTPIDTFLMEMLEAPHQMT
Source text: Using a reporter gene protocol, the screening model for screening a nuclear receptor agonist in a living cell is designed on a basis of the principal that an activated nuclear receptor can activate transcription of its downstream gene. A reporter gene plasmid is constructed, in which the DNA binding sequence for the nuclear receptor (NRE) is inserted upstream of the luciferase gene, so that the expression of the luciferase gene is placed under the control of the nuclear receptor. Then, the reporter gene plasmid and the nuclear receptor are simultaneously transferred into a cell, and the nuclear receptor is activated when the nuclear receptor agonist is present in the cell culture medium. Then the activated receptor is able to induce the expression of the luciferase gene, while the amount of the luciferase can be determined through its luminous substrate. In this way, the intensity of activation by the compound on the nuclear receptor could be known by observing the luminescence intensity.
The specific operation is described as follows:
The experiment reagents: the compounds to be tested (20 mM, in DMSO, stored at −80° C.).
The hepatocarcinoma cell HepG2 (from ATCC, American Type Culture Collection) was cultured in DMEM medium supplemented with 10% heat-inactivated fetal bovine serum (FBS, Invitogen, Grand Island, N.Y., USA) in a T-75 culture bottle (Greiner, Germany) in a incubator at 37° C., the relative humidity of 100%, and 5% CO2. When the cell culture in the culture bottle reached 80-90% confluency, it was digested with 0.25% Trypsin (with EDTA) for 3 min and inoculated into a 96-well cell culture plate at an inoculating density of 2000 cells/100 μl/well.
In the next day, when the cells in the 96-well culture plate grew up to 50-80% confluency, cell transfection was performed. The cell co-transfection system comprised the FuGene6 transfection agent (Roche Molecular Biochemicals, Indianapolis, Ind., U.S.A.) and 60 ng DNA (long of hRXR, 10 ng of pCMV βGal, 10 ng of the nuclear receptor expression plasmid RXR/PPARδ, 30 ng of GFP fluorescence reporter gene plasmid, respectively).
The cell culture medium was discarded immediately at 24 hours post-transfection and replaced by 200 μl of a fresh DMEM medium containing the medicament to be tested (with 10% FBS treated by activated carbon).
24 h after treatment with the medicament, the cells were lysed with a lysis solution (Cell Culture Lysis buffer, Promega) and centrifuged, and the supernatant was collected. The supernatant was treated with a fluorescence detection kit (Promega) and counted by a fluorescence meter (Ascent Fluoroskan FL reader, Thermo Labsystems, Finland), and the relative intensity of the luciferase was determined. For assaying the β-galactosidase activity used in the experiment as the inner reference (the inner reference calibrating for the transfection efficiency), 50 μl of the supernatant was transferred into a fresh microplate and treated with the Promega kit and read at a wavelength of 405 nm from a microplate reader (Bio-tech Instruments Inc., Winooski, Vt., USA) (Sauerberg, P.; Olsen, G. S.; Jeppesen, L.; Mogensen, J. P. et al., J. Med. Chem., 2007, 50, 1495-1503).
The median effective concentration (EC50) of a sample is a concentration at which the sample has 50% pharmacological effect. This value is one of the important parameters for evaluating pharmacological effects of a compound. In the present screening process, the EC50 of a sample was calculated according to the activation of the receptor by the sample at six different concentrations.

[2] = test system: high fat fodder obese C57BL/6J mice; test: High fat fodder obese mice: levels of blood lipid and blood glucose; type: in vivo; parameters: HDL / GLU / TC / TG: unit not given here; conditions: mean ± s, n 5
Source text: 3 week-old male C57BL/6J mice were chosen as experiment animals, 15 of which were randomly selected to feed with a standard fodder, and the remains were allowed to feed with a high fat fodder, with each of the mice being marked by ear-cutting. The body weights and fodder intake of the mice were weighed every week. […] […], the effects of the medicaments on the levels of blood lipid and blood glucose, body weight, and fodder intake in the animals were observed, while a glucose tolerance test was performed to investigate the effects of the medicaments on the glucose tolerance in the animals.

[3] = test system: high fat fodder obese C57BL/6J mice; test: High fat fodder obese mice: body weight and food intake; type: in vivo
Source text: 3 week-old male C57BL/6J mice were chosen as experiment animals, 15 of which were randomly selected to feed with a standard fodder, and the remains were allowed to feed with a high fat fodder, with each of the mice being marked by ear-cutting. The body weights and fodder intake of the mice were weighed every week. […] After the administration of the inventive compounds for four weeks, the effects of the medicaments on the levels of blood lipid and blood glucose, body weight, and fodder intake in the animals were observed, while a glucose tolerance test was performed to investigate the effects of the medicaments on the glucose tolerance in the animals.

[4] = 2 weeks administration, 10 mg/kg
[5] = 2 weeks administration, 30 mg/kg
[6] = 4 weeks administration, 10 mg/kg
[7] = 4 weeks administration, 30 mg/kg

Cc1cc(SCC(=O)O)ccc1OCc1nn(-c2ccc(C(F)(F)F)cc2)c(=O)n1C [Compound A-12, 2-(3-methyl-4-(3-(4-methyl-5-oxo-1-(4-trifluoromethyl-phenyl)-4,5-dihydrogen-1H-1,2,4-triazolyl)-methoxy)-phenylthio)-acetic acid]
EC50 [1]: 650 nM

Cc1cc(OCC(=O)O)ccc1OC(c1ccccc1)c1nn(-c2ccc(C(F)(F)F)cc2)c(=O)n1C (centres unmarked) [Compound A-6, 2-(3-methyl-4-(1-(3-(4-methyl-5-oxo-1-(4-trifluoromethyl-phenyl)-4,5-dihydrogen-1H-1,2,4-triazolyl))-benzyloxy)-phenoxy)-acetic acid]
EC50 [1]: 2090 nM

Cc1cc(SC(c2ccccc2)c2nn(-c3ccc(C(F)(F)F)cc3)c(=O)n2C)ccc1OC(C)(C)C(=O)O (centres unmarked) [Compound A-16, 2,2-dimethyl-2-(2-methyl-4-(1-(3-(4-methyl-5-oxo-1-(4-trifluoromethyl-phenyl)-4,5-dihydrogen-1H-1,2,4-triazolyl))-benzylthio)-phenoxy)-acetic acid]
EC50 [1]: 1 nM

CCCCCCCCCCC[C@@H](C[C@@H]1OC(=O)[C@H]1CCCCCC)OC(=O)[C@H](CC(C)C)NC=O [Orlistat, reference compound]
GLU [2, 4]: 11.11 ± 1.08 | HDL [2, 4]: 3.29 ± 0.27 | TC [2, 4]: 3.81 ± 2.56 | TG [2, 4]: 0.36 ± 0.09 | GLU [2, 5]: 8.81 ± 2.16 | HDL [2, 5]: 2.72 ± 0.3 | TC [2, 5]: 3.89 ± 0.44 | TG [2, 5]: 0.45 ± 0.09 | GLU [2, 6]: 11.05 ± 1.09 | HDL [2, 6]: 2.63 ± 1.27 | TC [2, 6]: 4.24 ± 0.33 | TG [2, 6]: 0.28 ± 0.03 | GLU [2, 7]: 9.84 ± 1.83 | HDL [2, 7]: 2.79 ± 0.35 | TC [2, 7]: 3.48 ± 0.54 | TG [2, 7]: 0.41 ± 0.04 | Food intake ([3]; column 1, 10 mg/kg): 5.88 g | Food intake ([3]; column 1, 30 mg/kg): 6.04 g | Food intake ([3]; column 2, 10 mg/kg): 5.42 g | Food intake ([3]; column 2, 30 mg/kg): 4.66 g | Food intake ([3]; column 3, 10 mg/kg): 6.7 g | Food intake ([3]; column 3, 30 mg/kg): 5.52 g | Food intake ([3]; column 4, 10 mg/kg): 6.64 g | Food intake ([3]; column 4, 30 mg/kg): 7.78 g | Food intake ([3]; column 5, 10 mg/kg): 6.4 g | Food intake ([3]; column 5, 30 mg/kg): 7.92 g

CCCCn1c(C(Oc2ccc(SCC(=O)O)cc2C)c2ccccc2)nn(-c2ccc(C(F)(F)F)cc2)c1=O (centres unmarked) [Compound A-17, 2-(3-methyl-4-(1-(3-(4-n-butyl-5-oxo-1-(4-trifluoromethyl-phenyl)-4,5-dihydrogen-1H-1,2,4-triazolyl))-benzyloxy)-phenylthio)-acetic acid]
EC50 [1]: < 1 nM

Cc1cc(OCC(=O)O)ccc1SC(c1ccccc1)c1nn(-c2ccc(C(F)(F)F)cc2)c(=O)n1C (centres unmarked) [Compound A-7, 2-(3-methyl-4-(1-(3-(4-methyl-5-oxo-1-(4-trifluoromethyl-phenyl)-4,5-dihydrogen-1H-1,2,4-triazolyl))-benzylthio)-phenoxy)-acetic acid]
EC50 [1]: 380 nM

CCc1cc(SC(c2ccccc2)c2nn(-c3ccc(C(F)(F)F)cc3)c(=O)n2C)ccc1OCC(=O)O (centres unmarked) [Compound A-14, 2-(2-ethyl-4-(1-(3-(4-methyl-5-oxo-1-(4-trifluoromethyl-phenyl)-4,5-dihydrogen-1H-1,2,4-triazolyl))-benzylthio)-phenoxy)-acetic acid]
EC50 [1]: < 1 nM

Cc1cc(SC(c2ccccc2)c2nn(-c3ccc(C(F)(F)F)cc3)c(=O)n2C)ccc1OC(C)C(=O)O (centres unmarked) [Compound A-13, 2-methyl-2-(2-methyl-4-(1-(3-(4-methyl-5-oxo-1-(4-trifluoromethyl-phenyl)-4,5-dihydrogen-1H-1,2,4-triazolyl))-benzylthio)-phenoxy)-acetic acid]
EC50 [1]: 20 nM

CCc1cc(OC(c2ccccc2)c2nn(-c3ccc(C(F)(F)F)cc3)c(=O)n2C)ccc1OCC(=O)O (centres unmarked) [Compound A-5, 2-(2-ethyl-4-(1-(3-(4-methyl-5-oxo-1-(4-trifluoromethyl-phenyl)-4,5-dihydrogen-1H-1,2,4-triazolyl))-benzyloxy)-phenoxy)-acetic acid]
EC50 [1]: 340 nM

CCCCn1c(C(Sc2cc(C)c(OCC(=O)O)cc2C)c2ccccc2)nn(-c2ccc(C(F)(F)F)cc2)c1=O (centres unmarked) [Compound A-19, 2-(2,5-dimethyl-4-(1-(3-(4-n-butyl-5-oxo-1-(4-trifluoromethyl-phenyl)-4,5-dihydrogen-1H-1,2,4-triazolyl))-benzylthio)-phenoxy)-acetic acid]
EC50 [1]: < 1 nM

Cc1cc(SC(C)(C)C(=O)O)ccc1OC(c1ccccc1)c1nn(-c2ccc(C(F)(F)F)cc2)c(=O)n1C (centres unmarked) [Compound A-15, 2,2-dimethyl-2-(3-methyl-4-(1-(3-(4-methyl-5-oxo-1-(4-trifluoromethyl-phenyl)-4,5-dihydrogen-1H-1,2,4-triazolyl))-benzyloxy)-phenylthio)-acetic acid]
EC50 [1]: 20 nM

Cc1cc(OC(c2ccccc2)c2nn(-c3ccc(C(F)(F)F)cc3)c(=O)n2C)ccc1SCC(=O)O (centres unmarked) [Compound A-2, 2-(2-methyl-4-(1-(3-(4-methyl-5-oxo-1-(4-trifluoromethyl-phenyl)-4,5-dihydrogen-1H-1,2,4-triazolyl))-benzyloxy)-phenylthio)-acetic acid]
EC50 [1]: 100 nM

Cc1cc(SC(c2ccccc2)c2nn(-c3ccc(C(F)(F)F)cc3)c(=O)n2C)ccc1OCC(=O)O (centres unmarked) [Compound A-4, 2-(2-methyl-4-(1-(3-(4-methyl-5-oxo-1-(4-trifluoromethyl-phenyl)-4,5-dihydrogen-1H-1,2,4-triazolyl))-benzylthio)-phenoxy)-acetic acid]
EC50 [1]: 10 nM
